The results in this text go back to ChEMBL document CHEMBL1201862, “PubChem BioAssay data set” (2004).

Active and inactive are the calls of the source. Cut-off read from the data, not from the text of the source, for most assays here: actives have a measured EC50 and inactives only a lower limit.

The target of assay [1] is T1, Heat shock factor protein 1 (Mus musculus, UniProt P38532).
T1 sequence (P38532 whole entry): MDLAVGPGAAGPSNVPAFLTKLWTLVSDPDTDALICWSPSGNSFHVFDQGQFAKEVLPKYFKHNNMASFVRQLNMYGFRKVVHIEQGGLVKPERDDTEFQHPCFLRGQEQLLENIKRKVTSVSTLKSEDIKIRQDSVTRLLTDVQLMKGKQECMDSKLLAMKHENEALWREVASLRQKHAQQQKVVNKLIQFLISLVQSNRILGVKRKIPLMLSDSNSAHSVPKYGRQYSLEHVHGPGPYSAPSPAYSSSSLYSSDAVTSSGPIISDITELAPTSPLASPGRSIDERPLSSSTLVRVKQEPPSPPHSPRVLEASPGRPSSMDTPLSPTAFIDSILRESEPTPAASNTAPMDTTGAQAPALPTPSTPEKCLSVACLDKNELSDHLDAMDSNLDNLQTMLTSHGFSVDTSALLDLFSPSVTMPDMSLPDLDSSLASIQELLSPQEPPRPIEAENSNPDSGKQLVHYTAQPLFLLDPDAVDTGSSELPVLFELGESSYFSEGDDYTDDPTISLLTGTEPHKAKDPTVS
Description: enhancement of HSF1-driven luciferase signal – cell-based, NIH3T3, luminescence, dose retest, confirmation (AID 435004).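 Note: stress induced by proteasome inhibitor MG132 added 30 min after compound; luciferase reporter driven by HSF1 response element in NIH3T3 cells; actives raise luminescence as potentiators of the MG132 stress response.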 Type of assay: functional.

A further assay concerns the target Cytochrome P450 2D6 (Homo sapiens, UniProt P10635).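 Note: CYP2D6 member of a cytochrome P450 panel assay.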
Assay [2] in a line: viability of uninfected HEp-2 cells – cell-based, HTS, cytotoxicity control for RSV inhibitor project, dose response (AID 2410). Type of assay: functional. The note with it: human respiratory syncytial virus.
The nature of assay [3]: luciferase reporter signal suppression in cells – H4 neuroglioma cells, luminescence, dose response (AID 1990). The class given is functional, cell-based. On the technique in general: In a reporter assay the amount or activity of a reporter protein is the signal.
Assay [4] is described as follows: alpha-synuclein stem-loop luciferase translation blockers – H4 neuroglioma cells, luminescence, confirmation (AID 1988). The class given is functional, cell-based.
A short description of assay [5]: Luminescence Cell-Based Dose Retest to Confirm Inhibitors of Cancer Stem Cells. [Related pubchem assays (depositor defined):AID2717, AID2721]. The note with it: Homo sapiens. Type of assay: functional.
The nature of assay [6]: Luminescence Cell-Based Dose Response HTS to Identify Inhibitors of 5'UTR Stem-Loop Driven Prion Protein mRNA Translation in H4 Neuroglioblastoma Cells. [Related pubchem assays: 1827 (Project Summary), 1813 (Primary HTS)]. The class given is functional.
For a further assay, the target named is Cytochrome P450 3A4 (Homo sapiens, UniProt P08684).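 Note: CYP3A4 tested as one member of a cytochrome P450 panel screen.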
Cytochrome P450 3A4, sequence (P08684 whole entry): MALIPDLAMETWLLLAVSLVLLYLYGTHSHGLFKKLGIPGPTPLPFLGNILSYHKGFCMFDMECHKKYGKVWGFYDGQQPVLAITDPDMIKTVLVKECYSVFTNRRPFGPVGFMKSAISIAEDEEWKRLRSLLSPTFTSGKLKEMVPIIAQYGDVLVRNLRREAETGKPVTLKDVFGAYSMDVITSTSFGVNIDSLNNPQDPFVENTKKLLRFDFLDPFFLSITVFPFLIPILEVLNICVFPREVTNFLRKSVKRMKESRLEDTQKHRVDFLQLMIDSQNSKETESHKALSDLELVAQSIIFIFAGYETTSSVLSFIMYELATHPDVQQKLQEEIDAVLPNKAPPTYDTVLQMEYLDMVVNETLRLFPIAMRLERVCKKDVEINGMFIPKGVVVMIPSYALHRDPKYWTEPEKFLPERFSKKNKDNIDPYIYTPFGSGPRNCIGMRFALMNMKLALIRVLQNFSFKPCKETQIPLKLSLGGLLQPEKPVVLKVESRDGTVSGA
The target in assay [7] is T2, Corticotropin-releasing factor receptor 2/Corticotropin-releasing factor-binding protein (Homo sapiens, UniProt P24387+Q13324).
T2 sequence (Q13324 whole entry): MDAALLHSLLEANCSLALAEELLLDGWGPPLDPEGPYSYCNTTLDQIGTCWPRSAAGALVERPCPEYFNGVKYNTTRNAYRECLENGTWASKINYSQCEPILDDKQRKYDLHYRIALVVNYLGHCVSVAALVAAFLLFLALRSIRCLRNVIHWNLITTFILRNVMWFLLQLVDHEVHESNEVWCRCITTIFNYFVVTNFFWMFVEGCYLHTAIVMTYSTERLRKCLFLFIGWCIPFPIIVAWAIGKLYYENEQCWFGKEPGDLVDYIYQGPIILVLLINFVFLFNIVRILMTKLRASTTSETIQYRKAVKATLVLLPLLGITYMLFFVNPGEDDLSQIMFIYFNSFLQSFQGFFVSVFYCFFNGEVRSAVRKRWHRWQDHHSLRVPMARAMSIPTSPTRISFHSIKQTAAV
T2 sequence (P24387 whole entry): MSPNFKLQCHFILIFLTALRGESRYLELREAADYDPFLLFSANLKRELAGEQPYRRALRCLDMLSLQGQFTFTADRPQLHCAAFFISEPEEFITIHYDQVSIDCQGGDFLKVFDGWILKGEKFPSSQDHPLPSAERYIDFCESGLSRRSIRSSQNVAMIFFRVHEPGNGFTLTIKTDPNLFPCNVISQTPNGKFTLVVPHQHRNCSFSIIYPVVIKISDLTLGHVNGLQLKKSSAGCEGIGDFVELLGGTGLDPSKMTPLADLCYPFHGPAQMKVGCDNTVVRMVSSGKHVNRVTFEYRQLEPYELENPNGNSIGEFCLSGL
Description: activators of CRF receptor 2 with binding protein – uHTS hits, confirmation (AID 602473). Type of assay: functional. To be noted: read-out: EC50_Mean.

Assay [8] can be described thus: Trypanosoma cruzi growth suppression in host cells – NIH3T3 host cells, beta-gal luminescence, confirmation (AID 2044).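 Note: intracellular parasites grown in NIH/3T3 mouse fibroblasts as host cells; luminescent beta-galactosidase reporter signal from transgenic T. cruzi replicating inside host cells; inhibitors lower the luminescence signal.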 The class given is functional, cell-based.
The nature of assay [9]: NIH3T3 cell viability loss – ATP luminescence, mouse fibroblasts, counter-screen, dose response (AID 2010).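 Note: cells exposed to compound for about 90 hours before reading.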 The class given is functional, cell-based. In general terms: The purpose of a counterscreen is to sort out artefacts and off-target activity.
For assay [10], the system named is Streptococcus sp. 'group A'. The assay can be described thus: Streptococcus pyogenes SK(-)GAS viability under kanamycin – luminescence, BacTiterGlo, confirmation, counter-screen for streptokinase expression inhibitor project, dose response (AID 1900). The class given is functional, organism-based.
For another assay, the system named is Streptococcus. The assay can be described thus: GAS UMAA2166 growth inhibition – luminescence, BacTiterGlo, counter-screen for streptokinase expression inhibitor project, dose response (AID 1915).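 Note: potency for reduction of bacterial viability or growth.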 The class given is functional, organism-based.
In assay [11] the target is T1, Heat shock factor protein 1. Description: decrease of HSF1-responsive luciferase luminescence – cell-based, NIH3T3, dose retest, confirmation (AID 2382).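 Note: NIH3T3 fibroblasts with HSF1-driven luciferase reporter stressed by proteasome inhibitor MG132; luminescence from HSF1-driven luciferase expression after 8 hours of MG132 stress.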 The class given is functional.

Cytochrome P450 2D6, sequence (P10635 whole entry): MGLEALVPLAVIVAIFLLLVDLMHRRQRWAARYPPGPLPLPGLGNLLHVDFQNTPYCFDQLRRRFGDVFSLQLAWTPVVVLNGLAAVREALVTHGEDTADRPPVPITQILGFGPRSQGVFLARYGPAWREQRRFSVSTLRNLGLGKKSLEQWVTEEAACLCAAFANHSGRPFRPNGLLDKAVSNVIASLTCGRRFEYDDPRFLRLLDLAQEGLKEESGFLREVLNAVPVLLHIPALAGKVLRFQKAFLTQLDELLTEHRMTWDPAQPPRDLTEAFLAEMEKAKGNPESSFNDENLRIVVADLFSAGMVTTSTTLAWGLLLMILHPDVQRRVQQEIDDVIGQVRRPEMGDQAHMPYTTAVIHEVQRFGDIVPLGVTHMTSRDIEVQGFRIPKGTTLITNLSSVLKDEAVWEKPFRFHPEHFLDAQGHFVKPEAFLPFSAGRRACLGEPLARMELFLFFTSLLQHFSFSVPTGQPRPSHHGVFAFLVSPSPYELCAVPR

With `C/C(N)=C(/C#N)C(=O)CSc1nnc(-c2ccc3c(c2)OCO3)o1`, the EC50 in assay [1] was > 260 µM (inactive).
The same measure, in the same setting: then `O=C(NCCc1ccccc1)N1c2ccccc2Sc2ccccc21`, with > 260 µM (inactive).
For orientation: AC50 means the concentration at which the activity in the assay is half-maximal. For `COc1ccc(C(=O)N2CCC3(CC2)CN(c2ccc(-c4ccccc4)cc2)C3)cc1`, the AC50 at Cytochrome P450 2D6 is 15.8 µM (inconclusive).
Consider `COc1ccccc1CNc1ccnc(-c2cccc(NS(C)(=O)=O)c2)n1`, for which, on Cytochrome P450 2D6, the AC50 was 39.8 µM (inconclusive).
With `COC(=O)c1ccc(CSc2nnnn2-c2ccc(C)cc2C)o1`, the EC50 in assay [1] was > 260 µM (inactive).
On to `CCC(=O)Nc1cccc(C(=O)/C=C/c2ccc(F)cc2)c1`, for which the EC50 in assay [1] was 11.6 µM (active).
What is called CC50 is the concentration giving 50% cytotoxicity. Turning to `CCOc1ccccc1-n1c(SCC(=O)Nc2ccc(CC)cc2)nc2nnc(C)c-2c1N`, the CC50 in [2] was 45.1 µM (active). In addition, the EC50 is > 60 µM (not active) in assay [3] and 9.77 µM (active) in assay [4].
As for `O=S(=O)(Nc1nc2ccccc2nc1N1CCN(c2ccccc2F)CC1)c1ccc(Cl)cc1`, the AC50 in assay [5] is 4.82 µM (active).
With `Cc1nc(N2CCC(C)CC2)c2c(C)c(C(=O)Nc3cccc(C(F)(F)F)c3)sc2n1`, in assay [1], the EC50 was > 260 µM (inactive).
On the same count and under the same terms, for `COc1ccc(-c2coc3cc4oc(=O)c(CC(=O)O)c(C)c4cc23)cc1` the value was > 260 µM (inactive).
For the compound `CCC(C)C1NC(=S)N(C2CCCCC2)C1=O` (configuration not stated), the EC50 in assay [3], in [6] and in assay [4] was > 120 µM (not active) in each case. The AC50 at Cytochrome P450 3A4 was 17.8 µM (inconclusive).
`CCc1nc2c(c(=O)c3ccccc3n2C)c(=O)n1C1CCCCCC1`: the CC50 in assay [2] was 20.7 µM (active). The EC50 in assay [7] is 6.21 µM (active).
On to `C/C(NNc1ccccc1)=C1/C(=O)NC(=O)N(Cc2ccccc2)C1=O`, for which, in [5], the AC50 is 1.03 µM (active).
`COc1cccc(C(c2nnnn2Cc2ccco2)N2CCN(c3cccc(C)c3C)CC2)c1OC` (configuration not stated): the CC50 in [2] was 18.5 µM (active).
On the same count and under the same terms, then `Cc1noc(C)c1COC(=O)c1cccc(N(C)C)c1`, with 11.9 µM (active); and `CCN1CCN(Cc2ccc(NC(=O)c3cc(NC(=O)c4cnnc5ccccc45)cc(OC)c3)cc2C(F)(F)F)CC1`, with 29 µM (active).
On the same count and under the same terms, then `COc1cc2c(cc1OC)CN(C(=O)CCCOc1ccc(Cl)cc1Cl)CC2`, with 24.7 µM (active).
Consider `COc1ccc(C(C[N+](=O)[O-])C2(c3ccc(OC)c(OC)c3)C(=O)c3ccccc3C2=O)cc1` (configuration not stated), for which the EC50 in assay [1] is 13.3 µM (active).
As to `O=C(NNC(=O)C12CC3CC(CC(C3)C1)C2)c1ccccc1F`, the EC50 in assay [3] was 17.7 µM (active); in [6], > 120 µM (not active); in assay [4], 10.2 µM (active).
As for `ClC(Cl)c1nnc(-c2ccccc2)c(-c2c[nH]c3ccccc23)n1`, the EC50 in [1] was 81.5 µM (active).
For `Cc1ccc(C(c2c(C)nn(-c3ccccc3)c2N)c2c(C)nn(-c3ccccc3)c2N)cc1`, the EC50 in assay [1] is > 260 µM (inactive).
Consider `C/C(Cn1cnc([N+](=O)[O-])n1)=N\NC(=O)c1ccccc1F`, for which the EC50 in assay [8] is 1.25 µM (active); in assay [9], > 60 µM (not active); in assay [1] it was > 260 µM (inactive).
Consider `COC(=O)c1c(NC(=O)/C=C/c2ccc3c(c2)OCO3)sc(C)c1C`, for which the AC50 in assay [5] was 4.17 µM (active).
The same measure, in the same setting: for `O=[N+]([O-])c1ccc(N/N=C/c2c[nH]c3ccccc23)c(S(=O)(=O)Nc2ccc(Cl)cc2)c1` the value was 1.15 µM (active).
As for `CN(C)/C=C(\C=N\OCc1ccc(Cl)cc1Cl)C(=O)Nc1ccc(Cl)c(Cl)c1`, the EC50 is 0.618 µM (active) in assay [10] and 3.07 µM (active) with Streptococcus. In [5], the AC50 was 1.5 µM (active).
For `CCCCc1ccc(NC(=O)Nc2cc(C)nn2C)cc1`, the AC50 in assay [5] was 3.31 µM (active).
Take `CCN(C(=O)C1CCCN(c2ncnc3c2nc2n3CCCCC2)C1)c1cccc(Cl)c1` (configuration not stated): the CC50 in assay [2] was 10.7 µM (active).
On the same count and under the same terms, for `CCCCCc1nc2c(c(=O)c3ccccc3n2C)c(=O)n1Cc1ccc(OC)cc1` the value was > 50 µM (active).
`CC(Nc1ccccc1CO)C(=O)Nc1cccc(Cl)c1Cl` (configuration not stated): the EC50 in assay [3] is 7.64 µM (active); in [6], 0.12 µM (active); in assay [4], 12.9 µM (active).
As to `O=[N+]([O-])c1cc([N+](=O)[O-])c(Oc2c(F)cccc2F)cc1NN1CCCCC1`, the EC50 in assay [1] is > 260 µM (inactive).
As for `COc1ccc(N(CC(=O)N2CCc3ccccc32)S(=O)(=O)c2c(C)noc2C)cc1`, the EC50 in [1] is 56.1 µM (active).
Consider `COCC(C)OC(=O)C(C#N)c1nc2ccccc2nc1N1CCN(Cc2ccccc2)CC1` (configuration not stated), for which the EC50 in assay [3] was 17.6 µM (active); in assay [6], > 120 µM (not active); in assay [4] it was 23.7 µM (active).
In the case of `CCOc1ccc(/C=N/NC(=O)COc2ccccc2-c2ccccc2)cc1`, the AC50 in [5] is 4.37 µM (active).
Consider `CCC(C)(C)NC(=O)C(c1ccc(C)cc1)N(Cc1cccs1)C(=O)c1ccc2c(c1)OCCO2` (configuration not stated), for which the EC50 in [1] was > 260 µM (inactive).
Take `O=C(CN1CCN(Cc2ccccc2Cl)C1=O)NCc1ccccn1`: the EC50 in assay [3], in assay [6] and in assay [4] was > 120 µM (not active) each time.
`COc1c(Br)cc([N+](=O)[O-])c(OC)c1C(=O)NC(=O)Nc1cc(Cl)cc(Cl)c1`: the EC50 was > 120 µM (not active) in [3], 17.8 µM (active) in assay [6] and 15.1 µM (active) in assay [4].
Regarding `Cc1cccc(-c2nnc3n2N=C(c2ccccc2)CS3)c1`, the values for the EC50 in [3], in assay [6] and in assay [4] were > 120 µM (not active), > 120 µM (not active) and 12.4 µM (active), respectively.
With `CC(C)CC1Nc2ccc(C(=O)NCCCN3CCOCC3)cc2NC1=O` (configuration not stated), the EC50 in [11] is on record as > 195 µM (not active).
As for `Cc1oc(CC(C)C)cc1C(=O)Nc1cccc2ccccc12`, the AC50 in assay [5] is 5 µM (active).
On to `O=C(Nc1ccc2ccccc2c1)c1cn(-c2ccccc2)nc1-c1cccs1`, for which the CC50 in assay [2] was 18.6 µM (active). Also, the EC50 in assay [8] is 1.86 µM (active); in assay [9] it was > 60 µM (not active).
Take `COc1cc2cc(CN(C(=O)NC3CCCCC3)C3CCCC3)c(O)nc2cc1OC`: in [11], the EC50 is given as > 195 µM (not active).
In the case of `COCCNC(=O)/C(C#N)=C/c1ccc(OC(=O)c2cccs2)c(OC)c1`, in assay [1], the EC50 is > 260 µM (inactive).
On to `Cc1nn(C)c(Oc2ccccc2)c1CCNS(=O)(=O)c1ccc(Cl)cc1`, for which the EC50 in assay [1] is > 260 µM (inactive).
As for `CCSc1nnc(NC(=O)C(Cc2ccccc2)n2cccc2)s1` (configuration not stated), in assay [11], the EC50 is listed as > 195 µM (not active).
For `CC(C)CN(C(=O)c1cccs1)C1CCS(=O)(=O)C1` (configuration not stated), the EC50 in assay [1] was > 260 µM (inactive).
In the case of `O=C(NCCCN1CCOCC1)c1ccc(-n2nc(C(F)(F)F)cc2-c2cccs2)cc1`, the EC50 in assay [3] is 11.6 µM (active); in assay [6], 34.9 µM (active); in assay [4] it was 16.4 µM (active).
